In general, EC50 refers to the concentration needed to bring the measured effect to its halfway point. Usually AC50 stands for the concentration giving half of the maximal activity seen. A word on the IC50: it is the point on the concentration scale where inhibition reaches its midpoint.

Here are results for 39 compounds from ChEMBL document CHEMBL1201862, “PubChem BioAssay data set” (2004).

The source made the active and inactive calls.

Assay [1] addresses Luciferin 4-monooxygenase (Photinus pyralis, UniProt P08659). The assay is described as follows: firefly luciferase enzyme inhibitors, dose response, biochemical, luminescence (AID 1891).
The nature of assay [2]: Luminescence Cell-Based Dose Confirmation HTS to Identify Inhibitors of Platelet Dense Granule Release. [Related pubchem assays: 1663 (Primary HTS), 1678 (Summary of Project)]. Format: functional.
Assay [3] is described as follows: microbe, parasite or virus in culture. Format: functional. The note with it: Mycobacterium tuberculosis.
Assay [4] deals with Paired box protein Pax-8 (Homo sapiens, UniProt Q06710). In words: inhibitors of PAX8-driven TPO luciferase reporter, dose response, RMG-I cells, cherry-pick (AID 687027).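 Note: luciferase reporter driven by Pax8 target thyroperoxidase promoter measured by SteadyGlo luminescence.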 It counts as functional, cell-based. In general terms: Reporter assays use an easily measured gene product as a stand-in for the process of interest.
Paired box protein Pax-8, sequence (Q06710 whole entry): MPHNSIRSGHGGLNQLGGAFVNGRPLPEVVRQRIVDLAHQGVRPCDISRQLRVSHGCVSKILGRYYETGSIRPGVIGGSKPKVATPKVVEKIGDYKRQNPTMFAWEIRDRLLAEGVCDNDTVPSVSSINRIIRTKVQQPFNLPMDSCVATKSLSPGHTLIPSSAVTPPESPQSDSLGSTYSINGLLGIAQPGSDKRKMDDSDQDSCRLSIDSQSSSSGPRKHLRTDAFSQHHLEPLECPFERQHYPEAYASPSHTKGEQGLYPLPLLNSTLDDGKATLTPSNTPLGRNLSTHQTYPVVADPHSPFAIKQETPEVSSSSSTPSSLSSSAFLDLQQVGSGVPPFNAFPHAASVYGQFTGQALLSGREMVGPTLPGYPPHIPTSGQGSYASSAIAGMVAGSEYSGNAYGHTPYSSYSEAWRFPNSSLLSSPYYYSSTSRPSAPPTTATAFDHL
Assay [5] can be described thus: cytotoxicity in OVCAR8 ovarian cancer cells, dose response, PAX8 project, cell-based, plate reader, dry powder samples (AID 743197). Format: functional. The note with it: OVCAR-8.
The nature of assay [6]: growth suppression of PTEN-null colon cells, dose response, cell-based, HCT116 PTEN knockout (AID 1047).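 Note: HCT116 colon tumor cells with PTEN knocked out; cells exposed to compound for 60 hours before readout; potency for loss of cell viability measured by luminescence.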 It counts as functional.
The nature of assay [7]: growth suppression of beta-catenin-knockout colon cells, dose response, cell-based, HCT116, human colon tumor (AID 1045).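 Note: HCT116 colon tumor cells with beta catenin knocked out; cells exposed to compound for 60 hours.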 Format: functional.
The target of assay [8] is T1, Protein skinhead-1 (Caenorhabditis elegans, UniProt P34707).
T1 sequence (P34707 whole entry): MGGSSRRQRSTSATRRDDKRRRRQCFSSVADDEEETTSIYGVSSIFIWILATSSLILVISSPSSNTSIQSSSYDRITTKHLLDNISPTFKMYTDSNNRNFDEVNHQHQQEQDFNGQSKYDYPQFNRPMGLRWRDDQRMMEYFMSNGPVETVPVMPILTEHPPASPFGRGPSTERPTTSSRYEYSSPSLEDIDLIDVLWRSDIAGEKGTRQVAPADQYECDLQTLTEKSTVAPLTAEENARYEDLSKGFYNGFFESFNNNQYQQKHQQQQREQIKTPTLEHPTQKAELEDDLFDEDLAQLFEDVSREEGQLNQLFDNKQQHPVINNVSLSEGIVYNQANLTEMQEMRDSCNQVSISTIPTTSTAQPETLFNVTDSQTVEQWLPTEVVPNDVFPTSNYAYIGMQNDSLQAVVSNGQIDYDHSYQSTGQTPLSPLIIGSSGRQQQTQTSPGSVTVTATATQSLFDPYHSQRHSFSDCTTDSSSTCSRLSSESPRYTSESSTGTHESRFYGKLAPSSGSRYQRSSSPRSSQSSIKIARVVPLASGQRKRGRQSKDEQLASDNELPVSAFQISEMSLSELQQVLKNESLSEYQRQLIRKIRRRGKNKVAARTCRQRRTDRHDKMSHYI
Format: functional.

The target of assay [9] is T2, RNA-binding protein pos-1 (Caenorhabditis elegans, UniProt G5EF15).
T2 sequence (G5EF15 whole entry): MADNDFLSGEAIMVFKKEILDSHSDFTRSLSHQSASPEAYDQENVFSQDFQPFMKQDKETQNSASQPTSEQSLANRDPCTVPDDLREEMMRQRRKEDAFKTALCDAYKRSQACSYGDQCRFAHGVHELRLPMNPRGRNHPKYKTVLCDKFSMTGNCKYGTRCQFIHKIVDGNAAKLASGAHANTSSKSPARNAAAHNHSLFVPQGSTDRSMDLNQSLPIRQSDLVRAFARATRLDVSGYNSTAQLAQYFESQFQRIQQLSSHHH
In words: inhibitors of POS-1/mex-3 RNA binding, dose response, biochemical, fluorescence polarization (AID 1964).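 Note: purified POS-1 fused to maltose binding protein made in E. coli; potency of compounds blocking POS-1 binding to fluorescent RNA.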 Background: Polarisation of emitted light reports the rotation of a fluorescent probe.

Assay [10] addresses T3, Zinc finger protein mex-5 (Caenorhabditis elegans, UniProt Q9XUB2).
T3 sequence (Q9XUB2 whole entry): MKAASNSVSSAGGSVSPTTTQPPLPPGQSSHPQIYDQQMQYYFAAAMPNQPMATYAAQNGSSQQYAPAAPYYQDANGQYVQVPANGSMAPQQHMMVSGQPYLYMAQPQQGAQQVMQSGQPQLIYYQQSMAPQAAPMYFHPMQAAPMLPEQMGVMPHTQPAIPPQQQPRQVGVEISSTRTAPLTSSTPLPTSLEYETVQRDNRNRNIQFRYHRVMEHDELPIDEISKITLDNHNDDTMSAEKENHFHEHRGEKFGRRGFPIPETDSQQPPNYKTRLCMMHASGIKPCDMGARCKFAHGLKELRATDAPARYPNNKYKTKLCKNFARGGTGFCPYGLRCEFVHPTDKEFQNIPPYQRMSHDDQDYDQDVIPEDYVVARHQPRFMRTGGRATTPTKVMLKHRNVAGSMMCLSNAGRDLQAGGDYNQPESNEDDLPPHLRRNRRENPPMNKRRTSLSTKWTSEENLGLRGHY
In words: MEX-5/TCR-2 RNA interaction inhibitors, dose response, biochemical, C. elegans, fluorescence polarization (AID 1960).

For assay [11], the target named is T4, Fatty acid synthase (Homo sapiens, UniProt P49327). The assay is described as follows: FAS thioesterase domain inhibitors, dose response, biochemical, endpoint fluorescence intensity, uHTS hits (AID 624327).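 Note: fluorescence from hydrolysis of an O-methyl fluorescein acyl ester substrate by the enzyme.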 Format: functional.
T4 sequence (P49327 whole entry, the tested form may be a part): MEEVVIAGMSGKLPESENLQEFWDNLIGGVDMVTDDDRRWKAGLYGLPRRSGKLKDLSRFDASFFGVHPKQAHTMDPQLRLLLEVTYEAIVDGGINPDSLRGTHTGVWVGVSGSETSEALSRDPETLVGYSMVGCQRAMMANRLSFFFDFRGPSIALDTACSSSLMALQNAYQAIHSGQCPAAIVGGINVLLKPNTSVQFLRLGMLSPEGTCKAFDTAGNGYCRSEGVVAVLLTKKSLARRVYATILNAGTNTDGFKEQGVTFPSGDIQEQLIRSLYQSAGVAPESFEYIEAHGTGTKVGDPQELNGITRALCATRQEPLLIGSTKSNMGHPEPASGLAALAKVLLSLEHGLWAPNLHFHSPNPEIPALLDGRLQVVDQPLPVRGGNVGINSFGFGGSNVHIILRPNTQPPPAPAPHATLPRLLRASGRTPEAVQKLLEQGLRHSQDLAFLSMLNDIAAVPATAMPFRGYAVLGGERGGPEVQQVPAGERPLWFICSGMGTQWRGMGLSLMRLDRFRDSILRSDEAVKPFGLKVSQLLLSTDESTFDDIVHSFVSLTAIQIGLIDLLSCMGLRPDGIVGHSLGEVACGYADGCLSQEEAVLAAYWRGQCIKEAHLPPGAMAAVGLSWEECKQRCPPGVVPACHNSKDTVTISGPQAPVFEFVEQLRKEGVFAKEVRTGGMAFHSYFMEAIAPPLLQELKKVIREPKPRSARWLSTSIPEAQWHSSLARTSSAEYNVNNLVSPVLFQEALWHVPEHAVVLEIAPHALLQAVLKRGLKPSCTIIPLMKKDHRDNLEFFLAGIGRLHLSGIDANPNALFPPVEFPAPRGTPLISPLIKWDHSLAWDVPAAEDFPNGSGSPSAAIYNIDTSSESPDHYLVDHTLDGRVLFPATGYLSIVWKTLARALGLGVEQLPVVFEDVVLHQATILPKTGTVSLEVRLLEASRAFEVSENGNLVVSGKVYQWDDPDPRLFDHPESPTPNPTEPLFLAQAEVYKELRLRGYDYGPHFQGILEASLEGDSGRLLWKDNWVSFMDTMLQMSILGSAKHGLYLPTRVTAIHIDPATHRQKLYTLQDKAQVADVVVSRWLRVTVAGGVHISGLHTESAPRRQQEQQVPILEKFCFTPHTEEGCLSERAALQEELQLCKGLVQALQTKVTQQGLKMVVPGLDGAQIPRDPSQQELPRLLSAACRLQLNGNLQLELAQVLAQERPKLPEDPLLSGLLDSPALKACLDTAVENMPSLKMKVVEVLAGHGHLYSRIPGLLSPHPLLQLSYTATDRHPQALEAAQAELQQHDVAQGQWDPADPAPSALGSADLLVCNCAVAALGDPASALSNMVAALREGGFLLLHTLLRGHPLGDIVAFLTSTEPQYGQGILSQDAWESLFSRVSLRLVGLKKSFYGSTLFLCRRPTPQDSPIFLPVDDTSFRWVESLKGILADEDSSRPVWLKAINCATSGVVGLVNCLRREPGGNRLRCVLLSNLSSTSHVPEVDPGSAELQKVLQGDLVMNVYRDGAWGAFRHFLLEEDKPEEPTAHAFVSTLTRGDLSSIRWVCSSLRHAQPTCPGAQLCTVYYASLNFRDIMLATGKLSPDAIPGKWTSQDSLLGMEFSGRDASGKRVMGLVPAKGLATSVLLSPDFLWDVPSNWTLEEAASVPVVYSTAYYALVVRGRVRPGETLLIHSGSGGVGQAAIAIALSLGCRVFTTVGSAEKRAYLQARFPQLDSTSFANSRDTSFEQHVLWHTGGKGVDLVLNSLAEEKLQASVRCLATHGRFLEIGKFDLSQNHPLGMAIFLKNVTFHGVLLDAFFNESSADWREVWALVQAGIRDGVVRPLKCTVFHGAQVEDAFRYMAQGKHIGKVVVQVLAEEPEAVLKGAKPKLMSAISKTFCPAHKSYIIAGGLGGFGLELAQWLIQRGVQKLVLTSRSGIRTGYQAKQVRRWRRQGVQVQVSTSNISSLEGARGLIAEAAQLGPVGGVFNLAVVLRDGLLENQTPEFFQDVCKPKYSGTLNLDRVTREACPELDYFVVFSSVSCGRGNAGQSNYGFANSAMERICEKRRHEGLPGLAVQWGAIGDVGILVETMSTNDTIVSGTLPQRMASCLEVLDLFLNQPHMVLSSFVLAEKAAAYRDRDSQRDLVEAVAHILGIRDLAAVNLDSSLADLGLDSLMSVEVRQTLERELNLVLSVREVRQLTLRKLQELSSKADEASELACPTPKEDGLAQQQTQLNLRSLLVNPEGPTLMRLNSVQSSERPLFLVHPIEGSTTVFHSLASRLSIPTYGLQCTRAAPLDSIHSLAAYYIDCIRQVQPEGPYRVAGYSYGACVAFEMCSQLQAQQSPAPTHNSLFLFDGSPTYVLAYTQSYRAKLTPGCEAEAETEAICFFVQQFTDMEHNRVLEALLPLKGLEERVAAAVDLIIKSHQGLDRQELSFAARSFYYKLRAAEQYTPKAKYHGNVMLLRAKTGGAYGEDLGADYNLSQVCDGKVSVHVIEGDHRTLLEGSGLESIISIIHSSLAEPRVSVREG
In assay [12] the target is T4, Fatty acid synthase. The assay is described as follows: FAS thioesterase domain inhibitors, dose response, biochemical, kinetic fluorescence intensity (AID 624326).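 Note: rate of fluorescence rise from hydrolysis of a fluorogenic O-methyl fluorescein ester substrate.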 It counts as functional.
Assay [13] is described as follows: cells. It counts as functional, cell-based.
The nature of assay [14]: cells. Format: functional, cell-based. The source holds these as a separate data set.
A short description of assay [15]: P. falciparum Dd2 growth inhibitors, dose response, SYBR Green, cherry-picked samples (AID 1159567). It counts as functional, cell-based.
Assay [16] relates to H9c2. In words: cells. Format: functional, cell-based. The settings on record: Rattus norvegicus, H9c2, Myocardium.

Luciferin 4-monooxygenase, sequence (P08659 whole entry): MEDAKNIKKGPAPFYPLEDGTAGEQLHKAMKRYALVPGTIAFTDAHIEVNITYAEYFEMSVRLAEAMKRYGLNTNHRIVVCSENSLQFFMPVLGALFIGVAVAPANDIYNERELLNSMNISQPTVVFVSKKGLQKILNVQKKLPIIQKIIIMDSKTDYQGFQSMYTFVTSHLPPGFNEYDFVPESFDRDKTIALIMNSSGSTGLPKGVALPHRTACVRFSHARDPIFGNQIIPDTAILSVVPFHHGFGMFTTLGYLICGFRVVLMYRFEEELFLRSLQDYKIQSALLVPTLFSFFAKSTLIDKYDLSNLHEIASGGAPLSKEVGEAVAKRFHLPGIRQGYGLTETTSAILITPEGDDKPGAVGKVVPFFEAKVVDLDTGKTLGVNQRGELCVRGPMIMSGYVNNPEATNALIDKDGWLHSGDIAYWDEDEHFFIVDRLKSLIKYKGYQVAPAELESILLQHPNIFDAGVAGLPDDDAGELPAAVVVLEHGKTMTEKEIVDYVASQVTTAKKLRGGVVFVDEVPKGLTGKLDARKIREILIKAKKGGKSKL

`CC(=O)Nc1cccc(N2C(=O)CC(Cc3ccccc3)C2=O)c1` (stereo not drawn): the EC50 in [1] and in [2] was > 112 µM (not active) throughout.

Regarding `CCOC(=O)c1ccc(/N=C2\C(=S)N(c3ccc(C(=O)OCC)cc3)C(=N)N2/N=C/c2ccccc2)cc1`, the CC50 in assay [3] is > 40 µM (active).

Take `CCOc1ccc(N2CC(C(=O)NCCc3ccc(OC)c(OC)c3)CC2=O)cc1` (stereo not drawn): the EC50 was > 112 µM (not active) in [1] and 36.1 µM (active) in assay [2].

Take `C[C@@H]1CN([C@@H](C)CO)C(=O)c2c(c3ccccc3n2C)-c2ccccc2CO[C@H]1CN(C)S(=O)(=O)c1cccc(F)c1`: the AC50 is 13.7 µM (active) in [4] and 46.4 µM (active) in assay [5].

On to `COc1ccc(C(=O)C(CCC(CNC(C)(C)C)C(=O)c2ccc(OC)cc2)CNC(C)(C)C)cc1` (stereo not drawn), for which the concentration giving a half-maximal response (EC50) in assay [1] is > 112 µM (not active); in assay [2], 4.24 µM (active); in assay [6], 3.04 µM (active); in [7], 2.48 µM (active).

With `COc1cccc(NC(=O)C2CCCN(c3ncnc4c3nc3n4CCCCC3)C2)c1` (stereo not drawn), the IC50 in assay [8] was > 100 µM (inactive).

For `CN(C)c1ccc(N=Nc2ccccc2C(=O)OCC(=O)NCC2CCCCC2)cc1`, the CC50 in assay [3] was > 40 µM (active).

As for `CC1(C)CC(=O)C2=C(C1)OC(/N=C/N1CCOCC1)=C(C#N)C2c1ccccc1` (stereo not drawn), the EC50 in assay [9] and in [10] was > 300 µM (not active) in each case.

In the case of `N#Cc1cncc(C#Cc2ccccc2)c1`, in [8], the IC50 is 16.9 µM (active).

For the compound `CSc1ccc(/C=N/NC(=O)c2cccc(O)c2)cc1`, the values for the EC50 in [1] and in assay [2] were 0.619 µM (active) and 6.7 µM (active), respectively.

Regarding `O=C(COC(=O)c1cc([N+](=O)[O-])ccc1N1CCOCC1)Nc1cccc(F)c1`, the figures for the concentration for half-maximal inhibition (IC50) in [11] and in assay [12] were 1.1 µM (active) and 0.917 µM (active), respectively.

`CCC1Oc2ccccc2N(CC(=O)Nc2ccccc2OC)C1=O` (stereo not drawn): the EC50 in assay [13] and in assay [14] was > 350 µM (not active) each time.

For `COC(=O)c1ccc(CN2CC(=O)N3[C@H](CO)[C@@H](c4ccc(-c5ccccc5F)cc4)[C@H]3C2)cc1`, the AC50 in assay [15] is 30 µM (active).

`COC(=O)c1cccc(NC(=O)Nc2ccc(Cl)cc2Cl)c1`: the EC50 in [1] and in assay [2] was > 112 µM (not active) each time.

On to `Cc1ccc(NC(=O)C(=O)c2ccc(C)cc2)cc1`, for which the IC50 in assay [8] is 98.5 µM (inactive).

On to `COc1ccc(NC(=O)CCS(=O)(=O)c2ccc3c(c2)CCN3C(C)=O)cc1`, for which the EC50 in assay [13] and in [14] was > 350 µM (not active) throughout.

Consider `COc1cc(OC)c(NC(=O)c2cc(S(=O)(=O)N3CCOCC3)cn2C)cc1Cl`, for which the EC50 in assay [1] and in assay [2] was > 112 µM (not active) each time.

On to `O=C(Cn1cc([N+](=O)[O-])ccc1=O)NCC1COc2ccccc2O1` (stereo not drawn), for which the values for the IC50 in assay [11] and in assay [12] were 10.1 µM (active) and 11.5 µM (active), respectively.

Take `CCCn1c(O)c(C#N)c(C)c(CN2CCCCC2)c1=O`: the EC50 in assay [9] was > 300 µM (inconclusive); in assay [10], > 300 µM (not active).

`COc1ccc(CN2C[C@H](C)[C@@H](OC)CN(C)C(=O)c3cc(NC(=O)c4nc5ccccc5s4)ccc3OC[C@@H]2C)cc1`: the concentration at half-maximal activity (AC50) in [15] was 4.9 µM (active).

Take `O=[N+]([O-])c1cc(-c2ccc(/C=N/n3cnnc3)o2)ccc1Cl`: the values for the half-maximal effective concentration (EC50) in assay [9] and in assay [10] were 30.1 µM (active) and 32.5 µM (active), respectively.

For `Cc1cc2ccccc2n1CCNC(=O)C1CCCC1`, the IC50 in [8] is > 100 µM (inactive).

On to `Cc1ccc(NC(=O)CCNC(=O)c2ccc([N+](=O)[O-])cc2)cc1C`, for which the IC50 in [11] is 9.54 µM (active); in assay [12], 9.29 µM (active).

For `OCCC#Cc1ccc(CN2CCN(Cc3ccccc3)C(CCO)C2)cc1` (stereo not drawn), the EC50 in assay [13] and in assay [14] was > 350 µM (not active) each time.

`Cc1cc(-n2c(C)cc(C(=O)COc3ccc4ccc(=O)oc4c3)c2C)no1`: in [3], the CC50 was > 40 µM (active). In addition, the IC50 in [16] is 24.7 µM (active).

For the compound `O/N=C1/C2C3CC4C5C3C1C5C1(OCCO1)C42` (stereo not drawn), the EC50 in assay [13] and in [14] was > 350 µM (not active) each time.

Take `O=C1CSC(N/N=C/c2cccs2)=N1`: the EC50 in [9] and in [10] was > 300 µM (not active) throughout.

For the compound `COCOCCn1cc(CN2CCS(=O)(=O)N(Cc3ccc(-c4cccc(N(C)C)c4)cc3)C(C(C)C)C2=O)nn1` (stereo not drawn), the IC50 in [8] was > 100 µM (inactive).

Take `O=C(CSc1ccc([N+](=O)[O-])cc1)NCC1CCCCC1`: the IC50 in [11] was 8.2 µM (active); in assay [12], 11.9 µM (active).

With `Cn1ncc(Cl)c1C(=O)N/N=C/c1cccc(OC2CSC2)c1`, the EC50 in [9] and in [10] was > 300 µM (not active) throughout.

Turning to `Cc1ccn2c(-c3csc(NCc4ccccc4)n3)c(C)nc2c1`, in assay [3], the CC50 was > 40 µM (active).

For the compound `Cc1cc(C)c(C#N)c(SC[S+]([O-])Cc2ccc(Cl)cc2)n1` (stereo not drawn), the IC50 in [11] is 5.88 µM (active); in [12], 5.54 µM (active).

In the case of `COc1ccc(CNc2ccc(-c3ccc(OC)cc3)nn2)cc1`, the EC50 in assay [1] and in assay [2] was > 112 µM (not active) throughout.

As for `N#CC1=C(N)OC2=C(C(=O)CCC2)C1c1cc2c(cc1Cl)OCO2` (stereo not drawn), the 50% effective concentration (EC50) in assay [9] and in assay [10] was > 300 µM (not active) each time.

With `CN1c2ccc(C3=CCCCC3)cc2[C@H]2[C@H](CCN2C(=O)NC2CCCCC2)[C@@H]1CO`, the concentration at half-maximal activity (AC50) in assay [4] was 12.3 µM (active); in assay [5], > 70 µM (inactive).

For `Cc1ccc(NS(=O)(=O)c2cccc(C(=O)N3CCCCCC3)c2)cc1`, the EC50 in [1] and in assay [2] was > 112 µM (not active) in each case.

`COc1ccc2c3c(n(C)c2c1)[C@H](CO)N(Cc1ccncc1)CC31CCN(C(=O)Cc2ccncc2)CC1`: the AC50 in assay [15] is 7.67 µM (active).

Regarding `O=C(Nc1ccc(C(=O)O)cc1)/C(=C\c1ccc([N+](=O)[O-])cc1)NC(=O)c1ccc(Br)cc1`, the figures for the IC50 in assay [11] and in assay [12] were 2.05 µM (active) and 1.21 µM (active), respectively.

In the case of `Brc1cccc(-c2nc(-c3ccncc3)no2)c1`, the IC50 in assay [8] is 16.6 µM (active).
